# According to patent publication US12318400B2, “Brown and beige adipocyte activating agent containing D-allulose as active ingredient” (NATIONAL UNIVERSITY CORPORATION KAGAWA UNIVERSITY, priority 2018, dated 2025):
# Entries after “also recorded” stand apart in the source; their conditions may differ.
# Columns and labels:
# [1] = tested on: beige adipocytes; assay: Example 3: marker expression in beige adipocytes of HFD-loaded mice after D-allulose; format: in vivo
# Protocol: (§1) (Purpose) The influence of D-allulose administration to mice on their brown adipose tissue is confirmed. In addition, differentiation of beige adipocytes is studied with a change in UCP-1 expression or the like as a marker. Mice are divided into two groups, each group having five mice. Eight-week-old mice of each group are loaded with a high fat diet (HFD). From four weeks after loading with HFD, one of the groups is loaded with HFD continuously. To the other group, D-allulose (0.2 mg/body weight g/day) together with HFD is administered to the stomach by a sonde. Until week 10, the body weight, food intake, water intake, and blood glucose level are monitored. The administration of D-allulose has a possibility of contributing a weight loss by inducing beige adipocytes and activating brown adipocytes. • 9) With regard to the details of the induction of beige adipocytes and the activation of brown adipocytes caused by D-allulose administration, expression of UCP-1 and Prdm16 which are genes involved in thermogenesis, Pgcl-α and Tfam which are genes reflecting the mitochondrial function of organelle involved in thermogenesis, and PPARγ which is a gene related to the differentiation of fat are investigated and the results are shown in FIG. 19.
# [2] = tested on: UCP-1, PPAR-α, PGC-1α; assay: Example 1: expression levels of UCP-1, PPAR-α and PGC-1α as activation of brown adipocytes; format: in vivo, mice; conditions: HFD+2% D-allulose vs HFD
# Protocol: (§2) In Examples of the present invention, activation of brown adipocytes was evaluated by the expression level of UCP-1, PPAR-α, or PGC-1α. The influence of administration of D-allulose, one of rare sugars, on brown adipocytes (BAT: abbreviation of brown adipose tissue) was studied. The experiment was performed using 6-week mice and the mice were divided into 3 groups, each group having 5 mice. The treatment was made as follows for 8 weeks. • (1) A group of normal diet and drinking of water (Normal food) • (2) A group of high fat diet and drinking of water (HFD) • (3) A group of high fat diet and drinking of water containing 2% D-allulose (D-allulose) (HFD+2% D-allulose) 2. Evaluation item: • (1) Transition of Body Weight • Transition of Blood Glucose • (2) Size and weight of brown adipocytes under the scapula • (3) Pathological evaluation of the morphological change in brown adipocytes • (4) Evaluation of UCP-1, PPAR-α, and PGC-1α expression levels as activation of brown adipocytes 3.
# [3] = tested on: cell line derived from a single clone from BAT of the adult supraclavicular fossa; assay: Differentiation induction into beige adipocytes in cells (BAT-protocol, WAT-protocol) with addition of D-allulose; format: cell-based
# Source text: FIG. 21 is a drawing for describing, with regard to an experiment using cells (a single-clone-derived cell strain is established from BAT of adult supraclavicular fossa portion and is used as a research model of differentiation induction into beige adipocytes), two protocols, that is, BAT-protocol and WAT-protocol, for inducing beige adipocytes. FIG. 22 is a drawing for describing, in an experiment using cells, protocols including two protocols, that is, BAT-protocol and WAT-protocol, for inducing beige adipocytes and further including addition of D-allulose. […] They are presumed to participate in the activation of brown adipocytes. • 10) FIG. 20 is a drawing for describing two protocols for inducing beige adipocytes, that is, BAT-protocol and WAT-protocol used in an experiment using cells (a cell line derived from a single clone from BAT of the adult supraclavicular fossa is established and used as a research model of the differentiation induction into beige adipocytes). FIG. 21 is a drawing for describing a protocol including two protocols for inducing beige adipocytes, that is, BAT-protocol and WAT-protocol and further including addition of D-allulose in an experiment using cells.
# [4] = tested on: type 2 diabetic patients; assay: Example 2: human clinical test of D-allulose (D-psicose) in type 2 diabetic patients; format: in vivo
# Source text: Type 2 diabetic patients unable to get sufficient effects by any of the following treatments (HbA1c: 6.5% or more) […] • 1) Only diet therapy and exercise therapy • 2) Drug therapy in addition to diet therapy and exercise therapy <Exclusion Standards> • 1) Patients having a contraindication to D-allulose (D-psicose) administration • 2) Patients who are participating in another clinical trial • 3) Pregnant women, parturients, lactating women, or women who may be pregnant • 4) Patients having 8% or more HbA1c and poor in blood glucose control • 5) Patients recognized to have severe renal dysfunction (serum creatinine level: 1.5 mg/dl or more) • 6) Patients having another severe complication <Experimenting Method> D-allulose (D-psicose) powders: provided as sticks each containing 5 g/pack (product of Rare Sweet) It was orally administered with 5 g per dose three times a day. Twelve type 2 diabetic patients (4 male cases, 8 female cases) who could be observed for 3 months were compared for general findings and blood test before administration and 12 weeks after administration (Wilcoxon signed rank test).
# [5] = tested on: brown adipocytes (BAT); assay: Example 1: high fat diet mice given 2% D-allulose drinking water, body weight, blood glucose and brown adipocytes; format: in vivo
# Protocol: as §2, with “The” for “In Examples of the present invention, activation of brown adipocytes was evaluated by the expression level of UCP-1, PPAR-α, or PGC-1α. The”
# [6] = tested on: brown adipose tissue (BAT); format: in vivo, mice
# Protocol: FIG. 10 is a drawing for describing the procedure (protocol) of the experiment of Example 3. Mice are divided into two groups, with one group having five mice. Eight-week-old mice of each group are loaded with a high fat diet (HFD). From four weeks after loading with HFD, one of the groups is loaded with HFD continuously. To the other group, D-allulose (0.2 mg/body weight g/day), in addition to HFD, is administered to the stomach by a sonde. Until week 10, the body weight, food intake, water intake, and blood glucose level are monitored. Glucose was intraperitoneally administered and the blood glucose level after 0, 15, 30, 60, 90, and 120 minutes were measured.
# [7] = tested on: brown adipocytes; assay: Example 3: marker expression in brown adipocytes of HFD-loaded mice after D-allulose; format: in vivo
# Protocol: as §1
# [8] = presence or absence of D-allulose
# [9] = after administration vs before administration
# [10] = before vs 12 weeks after administration, 5 g three times a day
# [11] = 6-week mice, HFD+2% D-allulose water, 8 weeks, vs HFD group
# [12] = HFD mice, D-allulose administered group
# [13] = classical brown adipose tissue, HFD-loaded mice
compound,measurement,setting,value
O=C(CO)[C@H](O)[C@H](O)[C@H](O)CO [D-allulose],UCP-1 mRNA expression,[1]; HFD-loaded mice,significantly increased
same,UCP-1 protein expression,[1]; HFD-loaded mice,significantly increased
same,PPARγ gene expression,[1]; gene panel,increased
same,Pgcl-α gene expression,[1]; gene panel,increased
same,Prdm16 gene expression,[1]; gene panel,increased
same,Tfam gene expression,[1]; gene panel,increased
same,UCP-1 gene expression,[1]; gene panel,increased
same,PGC-1α expression level,[2],induced more strongly
same,PPAR-α expression level,[2],induced more strongly
same,UCP-1 expression level,[2],induced UCP-1 further
same,Expression of all the markers,"[3]; D-allulose administered group, markers UCP-1, Prdm16, Pgc-1α, tfam, cox8b, PPARγ",significantly increased
same,PPARγ expression,[3]; WAT-protocol,enhances the expression
same,Pgc-1α expression,[3]; WAT-protocol,enhances the expression
same,Prdm16 expression,[3]; WAT-protocol,enhances the expression
same,UCP-1 protein expression,[3]; WAT-protocol,slightly enhances
same,oil-red-O (fat staining),[3]; addition of D-allulose to the differentiation inducing protocol,promotes
same,PPARγ expression,[3]; both differentiation protocols,enhances expression of PPARγ
same,PPARγ expression,[3]; [8],increased
same,UCP-1 expression,[3]; [8],increased
same,TNF-α level,[4]; 2 months after administration,significant decrease
same,Body weight decrease on average,"[4]; 5 g three times a day orally, 3 months after administration, 12 patients",1 kg
same,Body weight,"[4]; 5 g three times a day orally, after 3 months",significant decrease in body weight
same,MCP-1 level,[4]; [9],significantly decreased
same,TNF-α level,[4]; [9],significantly decreased
same,GA,[4]; [10],No significant difference
same,HbA1c,[4]; [10],No significant difference
same,adiponectin,[4]; [10],No significant difference
same,leptin,[4]; [10],No significant difference
same,Transition of blood glucose,[5]; [11],a decrease in blood glucose was recognized
same,Transition of body weight,[5]; [11],a decrease in body weight was observed
same,Size and weight of brown adipocytes under the scapula,"[5]; HFD+2% D-allulose, 8 weeks, vs HFD group",an increase in brown adipocytes was recognized
same,Pathological evaluation of the morphological change in brown adipocytes,"[5]; HFD+2% D-allulose, tissue staining, vs HFD group (steatosis)",improved to have almost a normal state; also recorded: almost morphologically similar to that of the normal diet intake group
same,Increasing degree of body weight,"[6]; HFD mice, D-allulose 0.2 mg/body weight g/day by sonde, from week 2 after administration is started",lowers significantly
same,Fasting blood glucose level,"[6]; HFD mice, D-allulose 0.2 mg/body weight g/day, from week 3 after administration is started",a reduction in fasting blood glucose level is observed
same,Area of brown adipocytes (BAT),[6]; [12],increase
same,Weight of brown adipocytes (BAT),[6]; [12],increase
same,Blood glucose level in the glucose loading test,"[6]; after 10 weeks, glucose intraperitoneally, after 90 and 120 minutes, vs control group",significantly decreases
same,Food intake,"[6]; mouse, in vivo",no significant change
same,Water intake,"[6]; mouse, in vivo",no significant change
same,Prdm16 gene expression,"[7]; brown adipocytes, gene panel",increase
same,Tfam gene expression,"[7]; brown adipocytes, gene panel",increase
same,UCP-1 gene expression,"[7]; brown adipocytes, gene panel",increase
same,UCP-1 mRNA expression,[7]; [13],increased
same,UCP-1 protein expression,[7]; [13],increased
